The text below walks through data of patent publication US20160122387A1, “Angiotensin Peptide and Pharmaceutical Compositions for Disease Treatment” (UNIVERSIDADE FEDERAL DE MINAS GERAIS - UFMG, priority 2012, published 2016).

This assay concerns conscious SHR. As to the kind of experiment: Acute IV bolus administration, MAP and HR in conscious SHR. The format is in vivo, rat. How it is done: Wistar and SHR rats were anesthetized with 2.5% tribromoethanol, intraperitoneally (1 mL/100 g). For femoral artery cannulation, cannulas made by connecting 15 cm polyethylene PESO to 4 cm of PE10 polyethylene were used, filled with saline solution (NaCl 0.9%) and heparin (100 IU/0.1 mL). After the animal was placed supine on the operating table, a trichotomy of the right inguinal region of the animal was performed. A small skin incision was made; the femoral neurovascular bundle was located and the femoral artery isolated. The cannula was introduced into the abdominal aorta through the femoral artery and was used for obtaining the cardiovascular parameters. A second cannula made by connecting 15 cm polyethylene PESO to 2 cm of PE10 polyethylene, filled with saline (0.9% NaCl), was inserted into the femoral vein for administration of peptides. After cannulation, the catheters were secured and exteriorized subcutaneously into the back of the animal, in the cervical region. The incisions were sutured and the animals placed in individual cages, with free access to water and feed. The values of mean arterial pressure (MAP) and heart rate (HR) were calculated from PA pulses and recorded by the data acquisition system (BIOPAC System, Model MP150). The pulsatile arterial pressure (PAP) was recorded by a signal sent to a transducer connected to the cannula inserted into the abdominal aorta via the femoral artery. The pressure oscillations were captured, amplified and converted by an analog/digital conversion board feeding signals to the data acquisition board. Through the card reader software, AcqKnowledge v.3.5.7 (Biopac System), PAP was continuously recorded with a sampling frequency of 2000-4000 Hz. Twenty-four hours after implantation of the cannulas was conducted, the first protocol, which consisted of acute intravenous administration of peptides was performed. For this, during the experiment, the arterial catheter was connected to the pressure transducer for the beginning of the record. After 90 minutes of cardiovascular parameters stabilization (baseline), the administration of the peptides […]-Ang-(1-7), Ang (1-7) or saline in a final volume of 300 uL was given in bolus. […] The Ang-(1-7) also was used to compare the effect induced by each peptide. Doses of 0.1 nmol/kg; 0.5 nmol/kg; 2.5 nmol/kg and 12.5 nmol/kg were administered to SHR (n=5-7 for each dose) while awake. […] After injection of the peptide or saline, cardiovascular parameters were continuously monitored for a period of 5 hours. The values of the MAP and HR were obtained every 10 minutes throughout the experimental period. Results are presented as mean±standard error of the mean. Two-way analysis of variance (ANOVA) with Bonferroni's multiple comparison post-test were used to compare the time-response curve obtained during the bolus administration in […]-Ang-(1-7) and Ang-(1-7). All statistical analyses were considered significant when p<0.05.

Take Asp-Arg-Val-Tyr-Ile-His-Pro [Ang-(1-7)]: for the setting “SHR, IV bolus 0.1 nmol/kg”, the “effect on MAP (PAM)” value is “did not significantly alter PAM”. For the same substance, the “effect on MAP” value is “no significant difference” (SHR, IV bolus 0.5 nmol/kg, vs saline group); “significant anti-hypertensive effect” (SHR, IV bolus 2.5 and 12.5 nmol/kg, vs saline group). Besides, the “change in heart rate (FC)” value (SHR, IV bolus 12.5 nmol/kg, last 30 minutes of the experiment) is listed as “significantly reduced the FC”. In addition, the “time after administration at which anti-hypertensive effect was observed” value (SHR, IV bolus 2.5 and 12.5 nmol/kg) was 110 min. Further, under “SHR, IV bolus 2.5 vs 12.5 nmol/kg”, the “dose comparison of anti-hypertensive effect” value is “more potent at the dose of 2.5 nmol/kg”. Besides, the “change in heart rate (CF)” value (SHR, IV bolus, all doses except 12.5 nmol/kg Ang-(1-7)) is listed as “no change was observed”. In addition, the “change in MAP, time- and dose-dependent” value (awake SHR, acute intravenous, different doses, vs saline group) is “significant reduction in MAP”.
